These are literature values, as cited in patent publication US20230310615A1, “OPHTHALMIC COMPOSITIONS” (Alcon Inc., priority 2022, published 2023).

The conditions of this data set: dissociation constant of the dibasic compound.

Take `OCC(CO)(CO)NCCCNC(CO)(CO)CO` [bis-TRIS-propane, 1,3-bis(tris[hydroxymethyl]methylamino)propane]: the pKa1 is 6.8 and the pKa2 is 9.5.
